Measured values published in the kinase profiling compilation of Christmann-Franck et al. (2016).

Assays:
Test in all cases: radiometric filter-binding kinase assay, Kinase HotSpot
Settings in all cases: compound 0.5 µM; ATP 10 µM
[1] = target: CSNK1G2 (human) (UniProt P78368)
[2] = target: DDR2 (human) (UniProt Q16832)
[3] = target: DYRK4 (human) (UniProt Q9NR20)
[4] = target: GRK4 (human) (UniProt P32298)
[5] = target: BRSK2 (human) (UniProt Q8IWQ3)
[6] = target: ROCK2 (human) (UniProt O75116)
Sequence of ROCK2 (human) (O75116 whole entry, looked up): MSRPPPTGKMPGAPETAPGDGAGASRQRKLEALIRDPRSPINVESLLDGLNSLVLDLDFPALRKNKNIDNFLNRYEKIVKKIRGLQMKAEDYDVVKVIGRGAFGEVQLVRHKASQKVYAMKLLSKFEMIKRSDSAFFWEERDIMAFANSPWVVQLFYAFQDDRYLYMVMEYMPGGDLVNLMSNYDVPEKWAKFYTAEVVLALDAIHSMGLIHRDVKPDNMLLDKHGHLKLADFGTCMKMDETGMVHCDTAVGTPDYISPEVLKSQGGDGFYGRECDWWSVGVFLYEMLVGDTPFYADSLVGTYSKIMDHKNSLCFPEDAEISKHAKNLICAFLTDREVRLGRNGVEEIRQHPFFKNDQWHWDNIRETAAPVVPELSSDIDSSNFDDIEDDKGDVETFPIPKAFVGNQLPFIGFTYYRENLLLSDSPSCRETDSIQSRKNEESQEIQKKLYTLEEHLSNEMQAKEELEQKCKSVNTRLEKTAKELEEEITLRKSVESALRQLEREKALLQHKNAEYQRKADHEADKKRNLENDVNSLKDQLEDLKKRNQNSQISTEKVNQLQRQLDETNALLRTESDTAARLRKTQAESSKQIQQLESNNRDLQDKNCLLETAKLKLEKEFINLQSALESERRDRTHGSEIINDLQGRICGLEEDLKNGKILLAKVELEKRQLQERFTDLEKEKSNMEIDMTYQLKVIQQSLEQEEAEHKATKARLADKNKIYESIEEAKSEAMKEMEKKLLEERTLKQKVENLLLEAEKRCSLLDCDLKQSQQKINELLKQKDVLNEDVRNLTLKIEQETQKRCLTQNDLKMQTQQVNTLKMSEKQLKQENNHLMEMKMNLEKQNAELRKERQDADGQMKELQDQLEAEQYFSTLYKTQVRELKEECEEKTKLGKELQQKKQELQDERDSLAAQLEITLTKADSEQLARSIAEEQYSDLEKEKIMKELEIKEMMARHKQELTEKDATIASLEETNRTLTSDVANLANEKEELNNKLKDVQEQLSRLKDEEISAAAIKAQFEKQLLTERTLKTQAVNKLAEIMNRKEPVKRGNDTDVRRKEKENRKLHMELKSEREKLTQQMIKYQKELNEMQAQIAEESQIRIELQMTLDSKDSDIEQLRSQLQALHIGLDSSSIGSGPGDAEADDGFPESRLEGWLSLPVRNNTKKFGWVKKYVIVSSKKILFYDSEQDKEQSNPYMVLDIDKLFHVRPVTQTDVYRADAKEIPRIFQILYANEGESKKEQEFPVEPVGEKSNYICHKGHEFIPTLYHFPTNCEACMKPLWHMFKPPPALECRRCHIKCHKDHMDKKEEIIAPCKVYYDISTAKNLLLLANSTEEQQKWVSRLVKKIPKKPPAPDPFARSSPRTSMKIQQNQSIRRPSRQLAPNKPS

[7] = target: SIK2 (human) (UniProt Q9H0K1)
[8] = target: HIPK4 (human) (UniProt Q8NE63)
[9] = target: FGR (human) (UniProt P09769)
[10] = target: RPS6KA2 KD1 KD2 (human) (UniProt Q15349)
[11] = target: CDK7 CCNH MNAT1 (human) (UniProt P50613+P51948+P51946)
Sequence of CDK7 CCNH MNAT1 (human) (P50613 whole entry, looked up): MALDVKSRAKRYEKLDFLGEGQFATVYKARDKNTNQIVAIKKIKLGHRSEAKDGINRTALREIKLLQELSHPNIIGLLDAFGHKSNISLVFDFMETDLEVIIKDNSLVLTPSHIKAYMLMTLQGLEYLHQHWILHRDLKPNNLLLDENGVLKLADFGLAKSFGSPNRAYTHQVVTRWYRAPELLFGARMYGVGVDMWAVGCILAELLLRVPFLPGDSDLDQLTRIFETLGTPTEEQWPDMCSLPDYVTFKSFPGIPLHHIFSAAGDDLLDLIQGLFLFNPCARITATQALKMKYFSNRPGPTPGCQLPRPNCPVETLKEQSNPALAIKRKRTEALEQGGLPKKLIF
Sequence of CDK7 CCNH MNAT1 (human) (P51946 whole entry, looked up): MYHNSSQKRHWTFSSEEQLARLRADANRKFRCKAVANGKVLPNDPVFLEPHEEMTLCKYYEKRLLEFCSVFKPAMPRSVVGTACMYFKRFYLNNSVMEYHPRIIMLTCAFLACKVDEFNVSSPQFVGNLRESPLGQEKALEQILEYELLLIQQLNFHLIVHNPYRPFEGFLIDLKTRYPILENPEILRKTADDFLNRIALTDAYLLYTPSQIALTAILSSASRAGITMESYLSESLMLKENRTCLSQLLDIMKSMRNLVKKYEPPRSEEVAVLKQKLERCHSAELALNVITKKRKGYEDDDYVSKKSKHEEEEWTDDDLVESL
Sequence of CDK7 CCNH MNAT1 (human) (P51948 whole entry, looked up): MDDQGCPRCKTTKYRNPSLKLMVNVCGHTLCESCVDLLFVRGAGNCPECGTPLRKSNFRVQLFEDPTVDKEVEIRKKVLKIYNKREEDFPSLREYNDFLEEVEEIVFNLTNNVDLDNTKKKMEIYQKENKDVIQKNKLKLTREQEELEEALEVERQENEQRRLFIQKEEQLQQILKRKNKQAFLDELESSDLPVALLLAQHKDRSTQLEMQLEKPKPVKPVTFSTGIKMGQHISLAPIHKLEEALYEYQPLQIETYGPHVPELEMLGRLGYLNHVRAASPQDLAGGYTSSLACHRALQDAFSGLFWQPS

[12] = target: TYK2 JH1 catalytic (human) (UniProt P29597)
[13] = target: CDK1 CCNA2 (human) (UniProt P06493+P20248)
[14] = target: AXL (human) (UniProt P30530)
[15] = target: MAP3K8 (human) (UniProt P41279)
[16] = target: INSR (human) (UniProt P06213)
Sequence of INSR (human) (P06213 whole entry, looked up): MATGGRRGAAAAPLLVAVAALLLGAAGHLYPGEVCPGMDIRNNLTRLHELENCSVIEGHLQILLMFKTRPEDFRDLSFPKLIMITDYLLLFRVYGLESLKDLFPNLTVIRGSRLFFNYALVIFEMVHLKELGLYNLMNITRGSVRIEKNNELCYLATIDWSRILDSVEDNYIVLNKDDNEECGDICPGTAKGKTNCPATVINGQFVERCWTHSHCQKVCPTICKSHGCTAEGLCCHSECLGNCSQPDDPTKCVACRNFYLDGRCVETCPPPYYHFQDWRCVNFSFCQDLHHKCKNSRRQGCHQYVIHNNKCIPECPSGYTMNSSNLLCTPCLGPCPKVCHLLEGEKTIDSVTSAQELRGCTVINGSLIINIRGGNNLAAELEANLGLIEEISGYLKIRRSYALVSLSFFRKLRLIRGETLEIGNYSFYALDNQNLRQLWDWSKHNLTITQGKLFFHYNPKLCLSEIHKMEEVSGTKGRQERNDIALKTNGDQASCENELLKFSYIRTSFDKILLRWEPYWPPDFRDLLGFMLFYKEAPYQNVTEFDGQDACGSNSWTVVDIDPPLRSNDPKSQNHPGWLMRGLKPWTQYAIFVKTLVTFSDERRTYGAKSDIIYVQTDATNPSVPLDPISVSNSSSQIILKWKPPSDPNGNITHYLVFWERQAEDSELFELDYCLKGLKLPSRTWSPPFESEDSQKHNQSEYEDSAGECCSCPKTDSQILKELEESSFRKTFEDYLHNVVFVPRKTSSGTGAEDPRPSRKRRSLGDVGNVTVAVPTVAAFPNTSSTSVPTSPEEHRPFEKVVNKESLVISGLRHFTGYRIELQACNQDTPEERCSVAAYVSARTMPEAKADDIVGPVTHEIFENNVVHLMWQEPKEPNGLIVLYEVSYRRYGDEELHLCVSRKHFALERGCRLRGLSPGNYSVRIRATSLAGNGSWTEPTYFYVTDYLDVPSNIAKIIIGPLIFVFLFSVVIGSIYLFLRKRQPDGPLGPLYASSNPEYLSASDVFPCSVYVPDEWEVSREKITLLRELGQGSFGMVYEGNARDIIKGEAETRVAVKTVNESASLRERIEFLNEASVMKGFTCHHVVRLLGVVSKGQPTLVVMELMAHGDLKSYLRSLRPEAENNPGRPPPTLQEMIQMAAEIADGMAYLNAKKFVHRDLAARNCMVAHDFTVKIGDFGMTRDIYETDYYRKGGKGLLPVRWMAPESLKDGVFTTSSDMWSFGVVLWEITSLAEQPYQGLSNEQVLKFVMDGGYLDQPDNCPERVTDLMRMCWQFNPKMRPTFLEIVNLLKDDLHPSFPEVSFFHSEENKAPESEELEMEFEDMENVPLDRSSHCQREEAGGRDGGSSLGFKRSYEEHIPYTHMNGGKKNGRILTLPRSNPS

[17] = target: RIPK2 (human) (UniProt O43353)
[18] = target: MAP3K3 (human) (UniProt Q99759)
[19] = target: JAK3 JH1 JH2 (human) (UniProt P52333)
[20] = target: MST4 (human) (UniProt Q9P289)
[21] = target: SGK2 (human) (UniProt Q9HBY8)
[22] = target: PIM3 (human) (UniProt Q86V86)
[23] = target: BLK (human) (UniProt P51451)
[24] = target: ULK2 (human) (UniProt Q8IYT8)
[25] = target: PLK3 (human) (UniProt Q9H4B4)
Sequence of PLK3 (human) (Q9H4B4 whole entry, looked up): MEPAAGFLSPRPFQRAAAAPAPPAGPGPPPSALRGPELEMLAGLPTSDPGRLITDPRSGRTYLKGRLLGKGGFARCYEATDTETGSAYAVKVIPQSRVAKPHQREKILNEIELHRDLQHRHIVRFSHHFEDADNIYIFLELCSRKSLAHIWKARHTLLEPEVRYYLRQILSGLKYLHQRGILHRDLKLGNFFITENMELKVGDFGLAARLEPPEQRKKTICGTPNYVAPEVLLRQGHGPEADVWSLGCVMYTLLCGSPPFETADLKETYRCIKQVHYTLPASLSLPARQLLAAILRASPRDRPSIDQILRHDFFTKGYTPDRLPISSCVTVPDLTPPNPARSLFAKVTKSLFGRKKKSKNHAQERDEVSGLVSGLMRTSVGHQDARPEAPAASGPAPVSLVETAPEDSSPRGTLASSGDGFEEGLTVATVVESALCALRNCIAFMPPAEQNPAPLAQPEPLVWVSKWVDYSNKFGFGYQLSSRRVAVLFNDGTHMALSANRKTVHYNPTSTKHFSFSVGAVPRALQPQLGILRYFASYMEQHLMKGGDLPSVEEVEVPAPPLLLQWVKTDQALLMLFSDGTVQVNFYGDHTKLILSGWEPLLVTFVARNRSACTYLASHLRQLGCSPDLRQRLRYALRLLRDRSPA

[26] = target: LIMK1 (human) (UniProt P53667)
[27] = target: PRKD1 (human) (UniProt Q15139)
[28] = target: MAPK8 (human) (UniProt P45983)
[29] = target: NEK4 (human) (UniProt P51957)
[30] = target: CDK2 CCNE1 (human) (UniProt P24941+P24864)
[31] = target: CSNK2A1 (human) (UniProt P68400)
[32] = target: SRPK3 (human) (UniProt Q9UPE1)
[33] = target: FER (human) (UniProt P16591)
[34] = target: AURKB (human) (UniProt Q96GD4)
[35] = target: GRK5 (human) (UniProt P34947)
[36] = target: MAP4K2 (human) (UniProt Q12851)
[37] = target: NEK6 (human) (UniProt Q9HC98)
[38] = target: STK16 (human) (UniProt O75716)
[39] = target: CSNK1G3 (human) (UniProt Q9Y6M4)
[40] = target: TEK (human) (UniProt Q02763)
[41] = target: LRRK2 (human) (UniProt Q5S007)
[42] = target: DYRK2 (human) (UniProt Q92630)

Sequence of DYRK4 (human) (Q9NR20 whole entry, looked up): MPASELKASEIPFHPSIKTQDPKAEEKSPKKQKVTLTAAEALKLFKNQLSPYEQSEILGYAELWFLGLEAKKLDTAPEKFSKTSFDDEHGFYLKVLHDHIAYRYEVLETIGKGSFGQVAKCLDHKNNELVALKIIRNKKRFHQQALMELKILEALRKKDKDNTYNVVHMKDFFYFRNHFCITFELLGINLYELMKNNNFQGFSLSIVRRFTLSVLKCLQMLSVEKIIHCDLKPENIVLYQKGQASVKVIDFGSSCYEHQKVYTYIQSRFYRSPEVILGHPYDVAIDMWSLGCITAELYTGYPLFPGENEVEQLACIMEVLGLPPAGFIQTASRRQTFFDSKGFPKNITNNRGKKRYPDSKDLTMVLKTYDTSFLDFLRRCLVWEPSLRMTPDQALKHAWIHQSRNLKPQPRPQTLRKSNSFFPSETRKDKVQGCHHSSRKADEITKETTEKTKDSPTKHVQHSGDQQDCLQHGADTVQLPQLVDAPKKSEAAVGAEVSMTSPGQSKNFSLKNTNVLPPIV

## O=C1Nc2cc(Br)ccc2/C1=C1/Nc2ccccc2/C1=N\O
[1]
  residual activity: 105%
[2]
  residual activity: 69.7%
[3]
  residual activity: 99.4%
[4]
  residual activity: 90.1%
[5]
  residual activity: 19.4%
[6]
  residual activity: 92.1%
[7]
  residual activity: 31.1%
[8]
  residual activity: 106%
[9]
  residual activity: 2.99%
[10]
  residual activity: 33.7%
[11]
  residual activity: 79.1%
[12]
  residual activity: 25.6%
[13]
  residual activity: 59.7%
[14]
  residual activity: 57.7%
[15]
  residual activity: 101%
[16]
  residual activity: 92.5%
[17]
  residual activity: 75.2%
[18]
  residual activity: 107%
[19]
  residual activity: 53.3%
[20]
  residual activity: 122%
[21]
  residual activity: 73%
[22]
  residual activity: 73.2%
[23]
  residual activity: 11.3%
[24]
  residual activity: 94%
[25]
  residual activity: 95.3%
[26]
  residual activity: 51.7%
[27]
  residual activity: 93.6%
[28]
  residual activity: 98.7%
[29]
  residual activity: 96.7%
[30]
  residual activity: 15.4%
[31]
  residual activity: 82.2%
[32]
  residual activity: 96.4%
[33]
  residual activity: 69.8%
[34]
  residual activity: 39.1%
[35]
  residual activity: 125%
[36]
  residual activity: 61.5%
[37]
  residual activity: 99.9%
[38]
  residual activity: 64%
[39]
  residual activity: 78.3%
[40]
  residual activity: 96.7%
[41]
  residual activity: 95.3%

## Nc1nc(Nc2ccc(S(N)(=O)=O)cc2)nn1C(=O)c1c(F)cccc1F
[2]
  residual activity: 113%
[3]
  residual activity: 105%
[4]
  residual activity: 94.7%
[5]
  residual activity: 49%
[6]
  residual activity: 18.6%
[7]
  residual activity: 84.1%
[8]
  residual activity: 67.7%
[9]
  residual activity: 63.5%
[10]
  residual activity: 42.2%
[11]
  residual activity: 81.1%
[12]
  residual activity: 0.878%
[13]
  residual activity: 10.3%
[14]
  residual activity: 94.2%
[15]
  residual activity: 94.4%
[16]
  residual activity: 94.9%
[17]
  residual activity: 77.8%
[18]
  residual activity: 27.5%
[19]
  residual activity: 8.5%
[20]
  residual activity: 64.2%
[21]
  residual activity: 106%
[22]
  residual activity: 102%
[42]
  residual activity: 112%
[23]
  residual activity: 90.1%
[24]
  residual activity: 102%
[25]
  residual activity: 91.3%
[26]
  residual activity: 16.6%
[27]
  residual activity: 66.5%
[28]
  residual activity: 85.9%
[29]
  residual activity: 79.2%
[30]
  residual activity: 7.15%
[31]
  residual activity: 104%
[32]
  residual activity: 86.2%
[33]
  residual activity: 82%
[35]
  residual activity: 85.9%
[36]
  residual activity: 58.4%
[37]
  residual activity: 102%
[38]
  residual activity: 48.5%
[40]
  residual activity: 84.2%
[41]
  residual activity: 48.3%

## CC(C)(C)c1nc2c3ccc(F)cc3c3c(=O)[nH]ccc3c2[nH]1
[1]
  residual activity: 100%
[3]
  residual activity: 104%
[4]
  residual activity: 74.2%
[5]
  residual activity: 21.4%
[6]
  residual activity: 70.7%
[7]
  residual activity: 60.2%
[8]
  residual activity: 107%
[9]
  residual activity: 76.9%
[10]
  residual activity: 34.6%
[11]
  residual activity: 92.8%
[12]
  residual activity: 1.48%
[13]
  residual activity: 89.4%
[14]
  residual activity: 81.9%
[15]
  residual activity: 128%
[16]
  residual activity: 80.6%
[17]
  residual activity: 34.6%
[18]
  residual activity: 61.1%
[19]
  residual activity: 0.445%
[20]
  residual activity: 70.9%
[21]
  residual activity: 84.4%
[22]
  residual activity: 33.9%
[42]
  residual activity: 62.5%
[23]
  residual activity: 93.5%
[24]
  residual activity: 41.5%
[25]
  residual activity: 11%
[26]
  residual activity: 73.7%
[27]
  residual activity: 8.19%
[28]
  residual activity: 73.7%
[29]
  residual activity: 65.6%
[30]
  residual activity: 87.5%
[31]
  residual activity: 82.9%
[32]
  residual activity: 58.6%
[33]
  residual activity: 34%
[34]
  residual activity: 11.2%
[35]
  residual activity: 72.9%
[36]
  residual activity: 66.2%
[37]
  residual activity: 82.5%
[38]
  residual activity: 90.1%
[39]
  residual activity: 105%
[40]
  residual activity: 101%
[41]
  residual activity: 47.5%
